Test results taken from patent US8859535B2, “Hydroxy substituted isoquinolinone derivatives” (Novartis AG, priority 2011, dated 2014).

Key:
[1] = target: T1, human MDM2 protein (amino acids 2-188) (Homo sapiens, UniProt Q00987); experiment: p53-MDM2 TR-FRET assay (p53-MDM2 Assay 1); assay type: binding; details: 1.25 nM MDM2-biotinylated, 10 nM Cy5-p53 peptide; read-out: IC50 (μM) of p53-Hdm2 inhibition (TR-FRET) Assay 1
T1 construct: human MDM2 protein (amino acids 2-188); made in house
Method: (§1) Time Resolved Fluorescence Energy Transfer (TR-FRET) Assay
(§2) The inhibition of p53-MDM2 and p53-MDM4 interactions is measured by time resolved fluorescence energy transfer (TR-FRET). Fluorescence energy transfer (or Foerster resonance energy transfer) describes an energy transfer between donor and acceptor fluorescent molecules. For this assay, human MDM2 protein (amino acids 2-188) and human MDM4 protein (amino acids 2-185), tagged with a C-terminal biotin moiety, are used in combination with a Europium labeled streptavidin (Perkin Elmer, Inc., Waltham, Mass., USA) serving as the donor fluorophore. The p53 derived, Cy5 labeled peptide Cy5-TFSDLWKLL (p53 aa18-26) is the energy acceptor. Upon excitation of the donor molecule at 340 nm, binding interaction between MDM2 or MDM4 and the p53 peptide induces energy transfer and enhanced response at the acceptor emission wavelength at 665 nm. Disruption of the formation of the p53-MDM2 or p53-MDM4 complex due to an inhibitor molecule binding to the p53 binding site of MDM2 or MDM4 results in increased donor emission at 620 nm. The ratiometric FRET assay readout is calculated from the raw data of the two distinct fluorescence signals measured in time resolved mode (fluorescence 665 nm/fluorescence 620 nm×1000).
(§3) After addition of 1.25 nM MDM2-biotinylated or 2.5 nM MDM4-biotinylated (internal preparations), and 0.625 nM Europium labeled streptavidin (Perkin Elmer), the solution is pre-incubated for 15 minutes at room temperature, then 10 nM Cy5-p53 peptide (internal preparation) is added before an incubation at room temperature for 15 minutes prior to reading the plate. For measurement of samples, a Victor II microplate reader (Perkin Elmer) is used with the following settings: Excitation 340 nm, Emission Donor 620 nm and Emission Acceptor 665 nm. IC50 values are calculated by curve fitting using XLfit. If not specified, reagents are purchased from Sigma-Aldrich Chemie GmBH, Buchs, Switzerland.
(§4) This assay was used to evaluate compounds displaying inhibition of p53-MDM2 interaction and p53-MDM4 interaction at IC50s of 0.005 to 50 μM (p53-MDM2 Assay 1 and p53-MDM4 Assay 1, respectively). For selected compounds displaying IC50s between […] on MDM2, a slightly modified assay is used with the following adaptations: 0.1 nM MDM2, 0.1 nM Europium labeled streptavidin and Tecan genios Pro is used as a microplate reader for the fluorescence measurements (p53-MDM2 Assay 2).

[2] = target: T2, human MDM4 protein (amino acids 2-185) (Homo sapiens, UniProt O15151); experiment: p53-MDM4 TR-FRET assay (p53-MDM4 Assay 1); assay type: binding; details: 2.5 nM MDM4-biotinylated, 10 nM Cy5-p53 peptide; read-out: IC50 (μM) of p53-Hdm4 inhibition (TR-FRET) Assay 1
T2 construct: human MDM4 protein (amino acids 2-185); made in house
T2 sequence (O15151 2-185): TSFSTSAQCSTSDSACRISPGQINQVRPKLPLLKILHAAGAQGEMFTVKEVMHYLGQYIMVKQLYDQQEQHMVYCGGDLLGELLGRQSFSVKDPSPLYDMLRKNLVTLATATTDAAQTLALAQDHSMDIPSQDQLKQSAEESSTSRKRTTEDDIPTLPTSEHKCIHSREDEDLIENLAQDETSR
Method: as §1, §2, §3, §4

T1 sequence (Q00987 2-188): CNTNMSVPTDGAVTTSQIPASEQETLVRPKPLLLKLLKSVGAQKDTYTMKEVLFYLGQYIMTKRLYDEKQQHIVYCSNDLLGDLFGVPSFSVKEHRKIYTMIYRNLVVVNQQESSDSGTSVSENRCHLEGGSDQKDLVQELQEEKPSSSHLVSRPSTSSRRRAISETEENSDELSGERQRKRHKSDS

Row | Structure (SMILES) | IC50 [1] | IC50 [2]
1 | COc1cc2c(cc1OC(C)C)[C@H](c1ccc(Cl)cc1)N(c1ccc([C@@](C)(O)C3CCOCC3)cc1)C(=O)C2 (single isomer, unassigned) [Example 32] | 0.0023 µM | 2.19 µM
2 | COc1cc2c(cc1OC(C)C)[C@H](c1ccc(Cl)cc1)N(c1ccc([C@](C)(O)C3CCOCC3)cc1)C(=O)C2 (single isomer, unassigned) [Example 33] | 0.216 µM | 67.8 µM
3 | COc1cccc(C(C)(O)c2ccc(N3C(=O)Cc4cc(OC)c(OC(C)C)cc4[C@@H]3c3ccc(Cl)cc3)cc2)c1 (stereo partly drawn) [Example 1, (S)-1-(4-Chloro-phenyl)-2-{4-[1-hydroxy-1-(3-methoxy-phenyl)-ethyl]-phenyl}-7-isopropoxy-6-methoxy-1,4-dihydro-2H-isoquinolin-3-one] | 0.0432 µM | 70.8 µM
4 | COc1cccc(C(O)c2ccc(N3C(=O)Cc4cc(OC)c(OC(C)C)cc4[C@@H]3c3ccc(Cl)cc3)cc2)c1 (stereo partly drawn) [Example 2, (S)-1-(4-Chloro-phenyl)-2-{4-[hydroxy-(3-methoxy-phenyl)-methyl]-phenyl}-7-isopropoxy-6-methoxy-1,4-dihydro-2H-isoquinolin-3-one] | 0.0868 µM | 87 µM
5 | CCC(C)(O)c1ccc(N2C(=O)Cc3cc(OC)c(OC(C)C)cc3[C@@H]2c2ccc(Cl)cc2)cc1 (stereo partly drawn) [Example 3, (S)-1-(4-Chloro-phenyl)-2-[4-(1-hydroxy-1-methyl-propyl)-phenyl]-7-isopropoxy-6-methoxy-1,4-dihydro-2H-isoquinolin-3-one] | 0.0267 µM | 18.9 µM
6 | COc1ccc(C(O)c2ccc(N3C(=O)Cc4cc(OC)c(OC(C)C)cc4[C@@H]3c3ccc(Cl)cc3)cc2)cc1 (stereo partly drawn) [Example 4, (S)-1-(4-Chloro-phenyl)-2-{4-[hydroxy-(4-methoxy-phenyl)-methyl]-phenyl}-7-isopropoxy-6-methoxy-1,4-dihydro-2H-isoquinolin-3-one] | 0.0107 µM | 17.3 µM
7 | COc1ccc(C(C)(O)c2ccc(N3C(=O)Cc4cc(OC)c(OC(C)C)cc4[C@@H]3c3ccc(Cl)cc3)cc2)cc1 (stereo partly drawn) [Example 5, (S)-1-(4-Chloro-phenyl)-2-{4-[1-hydroxy-1-(4-methoxy-phenyl)-ethyl]-phenyl}-7-isopropoxy-6-methoxy-1,4-dihydro-2H-isoquinolin-3-one] | 0.0082 µM | 10.5 µM
8 | COc1cc2c(cc1OC(C)C)[C@H](c1ccc(Cl)cc1)N(c1ccc(C(C)(O)c3ccc(F)cc3)cc1)C(=O)C2 (stereo partly drawn) [Example 6, (S)-1-(4-Chloro-phenyl)-2-{4-[1-(4-fluoro-phenyl)-1-hydroxy-ethyl]-phenyl}-7-isopropoxy-6-methoxy-1,4-dihydro-2H-isoquinolin-3-one] | 0.0343 µM | 61.8 µM
9 | COc1ccc(C(O)(c2ccc(N3C(=O)Cc4cc(OC)c(OC(C)C)cc4[C@@H]3c3ccc(Cl)cc3)cc2)C(F)(F)F)cc1 (stereo partly drawn) [Example 7, (S)-1-(4-Chloro-phenyl)-7-isopropoxy-6-methoxy-2-{4-[2,2,2-trifluoro-1-hydroxy-1-(4-methoxy-phenyl)-ethyl]-phenyl}-1,4-dihydro-2H-isoquinolin-3-one] | 0.132 µM | 49.3 µM
10 | COc1cc2c(cc1OC(C)C)[C@H](c1ccc(Cl)cc1)N(c1ccc(C(O)C3CCCCC3)cc1)C(=O)C2 (stereo partly drawn) [Example 8, (S)-1-(4-Chloro-phenyl)-2-[4-(cyclohexyl-hydroxy-methyl)-phenyl]-7-isopropoxy-6-methoxy-1,4-dihydro-2H-isoquinolin-3-one] | 0.0316 µM | 61.3 µM
11 | COc1cc2c(cc1OC(C)C)[C@H](c1ccc(Cl)cc1)N(c1ccc(C(C)(C)O)cc1)C(=O)C2 [Example 11, (S)-1-(4-Chloro-phenyl)-2-[4-(1-hydroxy-1-methyl-ethyl)-phenyl]-7-isopropoxy-6-methoxy-1,4-dihydro-2H-isoquinolin-3-one] | 0.0555 µM | 51.6 µM
12 | COc1cc2c(cc1OC(C)C)[C@H](c1ccc(Cl)cc1)N(c1ccc(C(C)(O)c3ccncc3)cn1)C(=O)C2 (stereo partly drawn) [Example 12, (S)-1-(4-Chloro-phenyl)-2-[5-(1-hydroxy-1-pyridin-4-yl-ethyl)-pyridin-2-yl]-7-isopropoxy-6-methoxy-1,4-dihydro-2H-isoquinolin-3-one] | 0.0195 µM | 23.9 µM
13 | COc1cc2c(cc1OC(C)C)[C@H](c1ccc(Cl)cc1)N(c1ccc(C(C)(O)c3cn(C)cn3)cc1)C(=O)C2 (stereo partly drawn) [Example 13, (S)-1-(4-Chloro-phenyl)-2-{4-[1-hydroxy-1-(1-methyl-1H-imidazol-4-yl)-ethyl]-phenyl}-7-isopropoxy-6-methoxy-1,4-dihydro-2H-isoquinolin-3-one] | 0.0608 µM | 82.7 µM
14 | COc1cc2c(cc1OC(C)C)[C@H](c1ccc(Cl)cc1)N(c1ccc(C(C)(O)c3ccn(C)n3)cc1)C(=O)C2 (stereo partly drawn) [Example 14, (S)-1-(4-Chloro-phenyl)-2-{4-[1-hydroxy-1-(1-methyl-1H-pyrazol-3-yl)-ethyl]-phenyl}-7-isopropoxy-6-methoxy-1,4-dihydro-2H-isoquinolin-3-one] | 0.0494 µM | 53.7 µM
15 | COc1cc2c(cc1OC(C)C)[C@H](c1ccc(Cl)cc1)N(c1ccc(C(C)(O)c3cccnc3)cn1)C(=O)C2 (stereo partly drawn) [Example 15, (S)-1-(4-Chloro-phenyl)-2-[5-(1-hydroxy-1-pyridin-3-yl-ethyl)-pyridin-2-yl]-7-isopropoxy-6-methoxy-1,4-dihydro-2H-isoquinolin-3-one] | 0.0404 µM | 61.1 µM
16 | COc1cc2c(cc1OC(C)C)[C@H](c1ccc(Cl)cc1)N(c1ccc(C(C)(O)c3cccnc3)cc1)C(=O)C2 (stereo partly drawn) [Example 16, (S)-1-(4-Chloro-phenyl)-2-[4-(1-hydroxy-1-pyridin-3-yl-ethyl)-phenyl]-7-isopropoxy-6-methoxy-1,4-dihydro-2H-isoquinolin-3-one] | 0.0058 µM | 8.42 µM

Continued, values first:

Row | IC50 [1] | IC50 [2] | Structure (SMILES)
17 | 0.383 µM | 84 µM | COc1cc2c(cc1OC(C)C)[C@H](c1ccc(Cl)cc1)N(c1ccc([C@](C)(O)C3CCOCC3)c(F)c1)C(=O)C2 (single isomer, unassigned) [Example 38]
18 | 0.0023 µM | 1.52 µM | COc1cc2c(cc1OC(C)C)[C@H](c1ccc(Cl)cc1)N(c1ccc([C@@](C)(O)C3CCOCC3)c(F)c1)C(=O)C2 (single isomer, unassigned) [Example 39]
19 | 0.005 µM | 7.17 µM | COc1cc2c(cc1OC(C)C)[C@H](c1ccc(Cl)cc1)N(c1ccc([C@@](C)(O)C3CCC(F)(F)CC3)cc1)C(=O)C2 (single isomer, unassigned) [Example 47]
20 | 0.0017 µM | 1.62 µM | COc1cc2c(cc1OC(C)C)[C@H](c1ccc(Cl)cc1)N(c1ccc([C@@](C)(O)C3CCN(C(C)=O)CC3)cc1)C(=O)C2 (single isomer, unassigned) [Example 53]
21 | 0.105 µM | 36.7 µM | COc1cc2c(cc1OC(C)C)[C@H](c1ccc(Cl)cc1)N(c1ccc([C@](C)(O)C3CCN(C(C)=O)CC3)cc1)C(=O)C2 (single isomer, unassigned) [Example 54]
22 | 0.129 µM | 49.9 µM | COc1cc2c(cc1OC(C)C)[C@H](c1ccc(Cl)cc1)N(c1ccc([C@](C)(O)C3CCN(C)CC3)cc1)C(=O)C2 (single isomer, unassigned) [Example 95]
23 | 0.0025 µM | 2.96 µM | COc1cc2c(cc1OC(C)C)[C@H](c1ccc(Cl)cc1)N(c1ccc([C@@](C)(O)C34CCC(CC3)O4)cc1)C(=O)C2 (single isomer, unassigned) [Example 136]
24 | 0.145 µM | 25.7 µM | COc1cc2c(cc1OC(C)C)[C@H](c1ccc(Cl)cc1)N(c1ccc([C@](C)(O)C34CCC(CC3)O4)cc1)C(=O)C2 (single isomer, unassigned) [Example 137]
25 | 0.0054 µM | 13.2 µM | COc1cc2c(cc1OC(C)C)[C@H](c1ccc(Cl)cc1)N(c1ccc([C@@](C)(O)C34CC5CC(CC(C5)C3)C4)cc1)C(=O)C2 (single isomer, unassigned) [Example 142]
